Source: the NIST ThermoML archive (doi:10.1016/j.tca.2014.03.043)
“And” between values parts separate entries of the source, which are not always exact repeats. Identical values can stand only once.

Experiment: molar heat capacity at constant pressure
Settings: 101.33 kPa, Liquid, Small sample (50 mg) DSC

OCCC1CCCCC1 [2-cyclohexylethanol]
Settings | molar heat capacity at constant pressure
253.5 K | 222 J/K/mol and 223.33 J/K/mol
256.05 K | 226.07 J/K/mol and 226.32 J/K/mol
260.65 K | 229.4 J/K/mol and 229.73 J/K/mol
265.75 K | 233.72 J/K/mol and 233.97 J/K/mol
270.86 K | 238.29 J/K/mol and 238.21 J/K/mol
275.96 K | 242.12 J/K/mol and 242.2 J/K/mol
281.07 K | 246.19 J/K/mol and 246.44 J/K/mol
286.17 K | 251.6 J/K/mol and 251.26 J/K/mol
291.28 K | 256.67 J/K/mol and 256.42 J/K/mol
296.38 K | 261.91 J/K/mol and 262.07 J/K/mol
301.48 K | 267.56 J/K/mol and 266.98 J/K/mol
306.59 K | 273.13 J/K/mol and 273.21 J/K/mol
311.7 K | 278.7 J/K/mol and 279.03 J/K/mol
316.81 K | 284.35 J/K/mol
321.91 K | 290.17 J/K/mol and 289.93 J/K/mol
327.01 K | 295.5 J/K/mol and 295.58 J/K/mol
332.12 K | 301.15 J/K/mol and 300.82 J/K/mol
337.22 K | 307.39 J/K/mol and 306.64 J/K/mol
342.33 K | 313.87 J/K/mol and 312.71 J/K/mol
347.43 K | 318.61 J/K/mol and 317.95 J/K/mol
352.54 K | 323.27 J/K/mol and 322.6 J/K/mol

C=CCO [2-propenol]
Settings | molar heat capacity at constant pressure
273.41 K | 134.94 J/K/mol and 134.61 J/K/mol
278.52 K | 137.19 J/K/mol and 137.35 J/K/mol
283.62 K | 139.43 J/K/mol and 139.18 J/K/mol
288.72 K | 141.93 J/K/mol and 141.68 J/K/mol
293.83 K | 144.34 J/K/mol and 144.17 J/K/mol
298.93 K | 146.67 J/K/mol and 146.5 J/K/mol
304.04 K | 149.16 J/K/mol and 149.08 J/K/mol
309.14 K | 152.32 J/K/mol and 151.82 J/K/mol
314.25 K | 154.82 J/K/mol and 154.4 J/K/mol
319.35 K | 157.23 J/K/mol and 157.06 J/K/mol
324.46 K | 160.14 J/K/mol and 160.3 J/K/mol

OCCCC1CCCCC1 [3-cyclohexyl-1-propanol]
Settings | molar heat capacity at constant pressure
258.09 K | 254.42 J/K/mol and 254.84 J/K/mol
263.2 K | 258.91 J/K/mol and 258.66 J/K/mol
268.3 K | 263.07 J/K/mol and 262.65 J/K/mol
273.41 K | 267.64 J/K/mol and 267.48 J/K/mol
278.51 K | 272.22 J/K/mol and 271.97 J/K/mol
283.62 K | 277.37 J/K/mol and 277.12 J/K/mol
288.72 K | 282.28 J/K/mol
293.83 K | 288.01 J/K/mol and 287.76 J/K/mol
298.93 K | 293.5 J/K/mol and 293.33 J/K/mol
304.04 K | 299.74 J/K/mol
309.14 K | 305.72 J/K/mol and 305.64 J/K/mol
314.25 K | 311.63 J/K/mol and 311.54 J/K/mol
319.35 K | 317.61 J/K/mol and 317.7 J/K/mol
324.46 K | 323.6 J/K/mol and 323.85 J/K/mol
329.56 K | 330.5 J/K/mol and 330 J/K/mol
334.67 K | 335.9 J/K/mol and 336.24 J/K/mol
339.77 K | 342.31 J/K/mol and 342.39 J/K/mol
344.88 K | 348.46 J/K/mol and 348.63 J/K/mol
349.98 K | 354.28 J/K/mol and 354.61 J/K/mol
355.09 K | 360.35 J/K/mol and 360.02 J/K/mol

OCC1CCCCC1 [cyclohexylmethanol]
Settings | molar heat capacity at constant pressure
258.09 K | 199.13 J/K/mol and 198.88 J/K/mol
263.2 K | 202.87 J/K/mol and 202.54 J/K/mol
268.3 K | 207.03 J/K/mol and 206.61 J/K/mol
273.41 K | 211.52 J/K/mol and 210.94 J/K/mol
278.51 K | 215.68 J/K/mol and 215.18 J/K/mol
283.62 K | 220.83 J/K/mol and 219.83 J/K/mol
288.72 K | 225.32 J/K/mol and 224.74 J/K/mol
293.83 K | 230.56 J/K/mol and 229.98 J/K/mol
298.93 K | 236.46 J/K/mol and 235.55 J/K/mol
304.04 K | 242.28 J/K/mol and 241.62 J/K/mol
309.14 K | 247.94 J/K/mol and 247.36 J/K/mol
314.25 K | 254.26 J/K/mol and 253.34 J/K/mol
319.35 K | 260.24 J/K/mol and 259.49 J/K/mol
324.46 K | 265.98 J/K/mol and 265.56 J/K/mol
329.57 K | 271.38 J/K/mol and 270.55 J/K/mol
334.67 K | 276.54 J/K/mol and 275.87 J/K/mol
339.77 K | 281.78 J/K/mol and 280.86 J/K/mol
344.88 K | 287.35 J/K/mol and 286.52 J/K/mol
349.98 K | 292.34 J/K/mol and 291.51 J/K/mol
355.09 K | 296.83 J/K/mol and 296.33 J/K/mol
